Test results taken from ChEMBL document CHEMBL5143560, “Rational drug design to explore the structure-activity relationship (SAR) of TRK inhibitors with 2,4-diaminopyrimidine scaffold” (Eur J Med Chem, 2022).

Experiments:
[1] = Stability of the compound in human plasma assessed as remaining compound measure after 120 mins by LC-MS/MS analysis; format: ADME, cell-free; conditions: read-out: Stability
[2] = AUClast in Sprague-Dawley rat at 1 mg/kg, iv by LC-MS/MS analysis; format: ADME, organism-based; parameters: time 0 - last, dose 1 mg/kg, route iv; conditions: in vivo
[3] = Metabolic stability in human liver microsomes assessed as parent compound remaining measured at 60 min in presence of NADPH by LC-MS/MS analysis; format: ADME, Microsome; conditions: read-out: Stability
[4] = Cmax in Sprague-Dawley rat at 3 mg/kg, po by LC-MS/MS analysis; format: ADME, organism-based; parameters: dose 3 mg/kg, route po; conditions: in vivo
[5] = AUCinfinity in Sprague-Dawley rat at 1 mg/kg, iv by LC-MS/MS analysis; format: ADME, organism-based; parameters: time infinity, dose 1 mg/kg, route iv; conditions: in vivo
[6] = Stability of the compound in human plasma assessed as remaining compound measure after 30 mins by LC-MS/MS analysis; format: ADME, cell-free; conditions: read-out: Stability
[7] = Half life in Sprague-Dawley rat at 1 mg/kg, iv by LC-MS/MS analysis; format: ADME, organism-based; conditions: in vivo
[8] = AUClast in Sprague-Dawley rat at 3 mg/kg, po by LC-MS/MS analysis; format: ADME, organism-based; parameters: time 0 - last, dose 3 mg/kg, route po; conditions: in vivo
[9] = Stability of the compound in human plasma assessed as half life by LC-MS/MS analysis; format: ADME, cell-free
[10] = Volume of distribution at steady state in Sprague-Dawley rat at 1 mg/kg, iv by LC-MS/MS analysis; format: ADME, organism-based; conditions: in vivo, read-out: Vdss
[11] = Metabolic stability in human liver microsomes assessed as parent compound remaining measured at 60 min in absence of NADPH by LC-MS/MS analysis; format: ADME, Microsome; conditions: read-out: Stability
[12] = Metabolic stability in human liver assessed as intrinsic clearance in presence of NADPH by LC-MS/MS analysis; format: ADME, tissue-based; conditions: read-out: CLH
[13] = Metabolic stability in human liver microsomes assessed as half life in presence of NADPH by LC-MS/MS analysis; format: ADME, Microsome
[14] = Oral bioavailability in Sprague-Dawley rat at 3 mg/kg by LC-MS/MS analysis; format: ADME, organism-based; conditions: in vivo
[15] = Stability of the compound in human plasma assessed as remaining compound measure after 10 mins by LC-MS/MS analysis; format: ADME, cell-free
[16] = MRT in Sprague-Dawley rat at 3 mg/kg, po by LC-MS/MS analysis; format: ADME, organism-based; conditions: in vivo
[17] = MRT in Sprague-Dawley rat at 1 mg/kg, iv by LC-MS/MS analysis; format: ADME, organism-based; conditions: in vivo
[18] = Tmax in Sprague-Dawley rat at 3 mg/kg, po by LC-MS/MS analysis; format: ADME, organism-based; conditions: in vivo
[19] = Metabolic stability in human microsomes assessed as intrinsic clearance in presence of NADPH by LC-MS/MS analysis; format: ADME, Microsome
[20] = Stability of the compound in human plasma assessed as remaining compound measure after 60 mins by LC-MS/MS analysis; format: ADME, cell-free; conditions: read-out: Stability

remaining at 2 h [1]: 103% | AUC(0-t) [2]: 325 ng·h/mL | remaining at 1 h [3]: 90.2% | Cmax [4]: 33.6 ng/mL | AUC [5]: 386 ng·h/mL | remaining at 0.5 h [6]: 90.1% | half-life [7]: 3.4 h | AUC(0-t) [8]: 188 ng·h/mL | half-life [9]: > 4.82 h | Vd [10]: 31 L/kg | remaining at 1 h [11]: 96% | CLint scaled [12]: < 8.6 mL/min/kg | half-life [13]: > 2.42 h | bioavailability [14]: 17.4% | Stability [15]: 84% | MRT [16]: 3.49 h | MRT [17]: 3.96 h | Tmax [18]: 4 h | CLint scaled [19]: < 9.6 mL/min/kg | remaining at 1 h [20]: 90.5%
Structure (SMILES): O=C(N[C@@H]1CCCNC1)c1cccc(Nc2ncc(Cl)c(NCc3cccc(F)c3)n2)c1
